Reference: ChEMBL document CHEMBL4765481, “Sialyltransferase Inhibitors Suppress Breast Cancer Metastasis” (J Med Chem, 2021)

Experiments:
[1] = target: T1, Sialyltransferase ST3Gal-I (Rattus norvegicus) (UniProt Q6H8N0); experiment: Inhibition of rat alpha-2,3-O-ST3GALI assessed as reduction in sialylated-product formation at 500 uM using p-nitrophenyl T-antigen and CMP-NeuSAc incubated for 15 mins by reverse-phase HPLC analysis relative to control
T1 sequence (whole entry): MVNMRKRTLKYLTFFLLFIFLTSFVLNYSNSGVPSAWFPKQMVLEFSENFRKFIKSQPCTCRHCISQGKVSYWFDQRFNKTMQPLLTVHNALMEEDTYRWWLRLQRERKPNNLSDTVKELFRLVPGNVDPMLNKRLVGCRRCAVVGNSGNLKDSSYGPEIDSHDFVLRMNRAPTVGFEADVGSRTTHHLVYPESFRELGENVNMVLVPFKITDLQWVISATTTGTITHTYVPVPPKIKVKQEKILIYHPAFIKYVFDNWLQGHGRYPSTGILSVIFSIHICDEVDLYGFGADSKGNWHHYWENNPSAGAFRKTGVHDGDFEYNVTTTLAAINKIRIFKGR

[2] = Selectivity ratio of IC50 for of inhibition of rat alpha-2,3-O-ST3GALI to IC50 for inhibition of human alpha-2,6-ST6GAL1
[3] = Toxicity in human MDA-MB-231 cells assessed as cell survival at >60 uM relative to control; format: cell-based; conditions: read-out: Survival
[4] = target: T2, Beta-galactoside alpha-2,6-sialyltransferase 1 (Homo sapiens, UniProt P15907); experiment: Inhibition of human alpha-2,6-ST6GAL1 assessed as reduction in sialylated-product formation using Gal-beta1-4GlcNac and CMP-NeuSAc incubated for 15 mins by reverse-phase HPLC analysis
T2 sequence (P15907 whole entry): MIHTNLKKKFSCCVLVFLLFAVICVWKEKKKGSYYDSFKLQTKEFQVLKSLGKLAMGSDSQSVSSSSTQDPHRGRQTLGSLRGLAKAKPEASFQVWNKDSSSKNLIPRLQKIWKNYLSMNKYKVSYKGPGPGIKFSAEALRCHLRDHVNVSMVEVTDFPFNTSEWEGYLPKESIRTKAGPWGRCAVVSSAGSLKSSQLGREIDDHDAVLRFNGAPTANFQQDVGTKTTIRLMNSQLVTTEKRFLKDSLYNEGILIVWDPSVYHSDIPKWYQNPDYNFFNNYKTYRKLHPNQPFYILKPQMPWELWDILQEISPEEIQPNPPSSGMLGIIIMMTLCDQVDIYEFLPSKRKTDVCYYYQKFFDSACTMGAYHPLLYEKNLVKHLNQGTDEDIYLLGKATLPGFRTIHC

[5] = Apparent permeability at pH 7.4 by PAMPA
[6] = target: T3, Sialyltransferase ST3Gal-I (Rattus norvegicus, UniProt Q6H8N0); experiment: Inhibition of rat alpha-2,3-O-ST3GALI assessed as reduction in sialylated-product formation using p-nitrophenyl T-antigen and CMP-NeuSAc incubated for 15 mins by reverse-phase HPLC analysis
T3 sequence (Q6H8N0 whole entry): T1 sequence (whole entry)

Rattus norvegicus [7] = species on record: Rattus norvegicus; experiment: Selectivity ratio of IC50 for of inhibition of rat alpha-2,3-O-ST3GALI to IC50 for inhibition of rat alpha-2,3-N-ST3GALIII
[8] = target: T4, CMP-N-acetylneuraminate-beta-1,4-galactoside alpha-2,3-sialyltransferase (Rattus norvegicus, UniProt Q02734); experiment: Inhibition of rat alpha-2,3-N-ST3GALIII assessed as reduction in sialylated-product formation using Gal-beta1-4Glc and CMP-NeuSAc incubated for 1.5 hrs by reverse-phase HPLC analysis
T4 sequence (Q02734 whole entry): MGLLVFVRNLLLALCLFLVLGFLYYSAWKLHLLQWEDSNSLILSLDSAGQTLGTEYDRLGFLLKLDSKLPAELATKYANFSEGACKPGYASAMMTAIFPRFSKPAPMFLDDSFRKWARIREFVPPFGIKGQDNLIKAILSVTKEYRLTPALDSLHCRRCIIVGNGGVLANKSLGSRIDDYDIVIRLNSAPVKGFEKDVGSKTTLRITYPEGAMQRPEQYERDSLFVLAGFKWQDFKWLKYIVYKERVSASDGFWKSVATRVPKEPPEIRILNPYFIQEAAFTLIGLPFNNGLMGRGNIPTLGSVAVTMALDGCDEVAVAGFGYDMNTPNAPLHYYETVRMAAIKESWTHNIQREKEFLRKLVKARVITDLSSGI

[9] = target: T1, Sialyltransferase ST3Gal-I (Rattus norvegicus); experiment: Inhibition of rat alpha-2,3-O-ST3GALI assessed as reduction in sialylated-product formation at 1 mM using p-nitrophenyl T-antigen and CMP-NeuSAc incubated for 15 mins by reverse-phase HPLC analysis relative to control
[10] = target: T5, Beta-galactoside alpha-2,6-sialyltransferase 1 (Homo sapiens) (UniProt P15907); experiment: Inhibition of human alpha-2,6-ST6GAL1 assessed as reduction in sialylated-product formation at 100 uM using Gal-beta1-4GlcNac and CMP-NeuSAc incubated for 15 mins by reverse-phase HPLC analysis relative to control
T5 sequence (whole entry): T2 sequence (P15907 whole entry)

Rattus norvegicus [11] = species on record: Rattus norvegicus; experiment: Selectivity ratio of inhibition of rat alpha-2,3-O-ST3GALI at 500 uM to IC50 for inhibition of rat alpha-2,3-N-ST3GALIII
Rattus norvegicus [12] = species on record: Rattus norvegicus; experiment: Selectivity ratio of inhibition of rat alpha-2,3-O-ST3GALI at 1000 uM to IC50 for inhibition of rat alpha-2,3-N-ST3GALIII

SMILES | inhibition [1] [%] | Ratio IC50 [2] | viability [3] [%] | IC50 [4] [µM] | Papp [5] [×10⁻⁶ cm/s] | IC50 [6] [µM] | Ratio IC50 (Rattus norvegicus [7]) | IC50 [8] [µM] | inhibition [9] [%] | inhibition [10] [%] | Selectivity ratio (Rattus norvegicus [11]) | Selectivity ratio (Rattus norvegicus [12])
COc1ccc2c(CC(=O)N[C@@H](CC(=O)O)C(=O)O[C@@H]3CC[C@@]4(C)[C@H](CC[C@@H]5[C@@H]4CC[C@]4(C)[C@@H]([C@H](C)CCC(=O)OCCOCCOCCOCCOCCN=[N+]=[N-])CC[C@@H]54)C3)cc(=O)oc2c1 | 0 | > 88 | > 90 | 5.7 | – | – | – | – | – | – | – | –
COc1ccc2c(CC(=O)N[C@@H](CC(=O)O)C(=O)O[C@@H]3CC[C@@]4(C)[C@H](CC[C@@H]5[C@@H]4CC[C@]4(C)[C@@H]([C@H](C)CCC(=O)OCCOCCN=[N+]=[N-])CC[C@@H]54)C3)cc(=O)oc2c1 | 0 | > 97 | > 90 | 5.1 | – | – | – | – | – | – | – | –
Cn1c(=O)c2[nH]cnc2n(C)c1=O.O [THEOPHYLLINE] | – | – | – | – | 1.4 | – | – | – | – | – | – | –
C[C@H](CCC(=O)O)[C@H]1CC[C@H]2[C@@H]3CC[C@@H]4C[C@H](OC(=O)[C@H](CCC(=O)O)Nc5ccc([N+](=O)[O-])c6nonc56)CC[C@]4(C)[C@H]3CC[C@]12C | – | 9 | – | – | – | 13.2 | 15 | 0.9 | – | – | – | –
COc1ccc2c(CC(=O)N[C@@H](CC(=O)O)C(=O)O[C@@H]3CC[C@@]4(C)[C@H](CC[C@@H]5[C@@H]4CC[C@]4(C)[C@@H]([C@H](C)CCC(=O)OCCN=[N+]=[N-])CC[C@@H]54)C3)cc(=O)oc2c1 | 0 | > 89 | > 90 | 5.6 | – | – | – | – | – | – | – | –
C[C@H](CCC(=O)O)[C@H]1CC[C@H]2[C@@H]3CC[C@@H]4C[C@H](OC(=O)[C@@H](N)CC(=O)O)CC[C@]4(C)[C@H]3CC[C@]12C | – | 3 | – | 15.8 | – | 39 | 3 | 12 | – | – | – | –
COc1ccc2c(CC(=O)N[C@@H](CC(=O)O)C(=O)O[C@@H]3CC[C@@]4(C)[C@H](CC[C@@H]5[C@@H]4CC[C@]4(C)[C@@H]([C@H](C)CCC(=O)OCCOCCOCCN=[N+]=[N-])CC[C@@H]54)C3)cc(=O)oc2c1 | 0 | > 109 | > 90 | 4.6 | – | – | – | – | – | – | – | –
C[C@H](CCC(=O)OCCN=[N+]=[N-])[C@H]1CC[C@H]2[C@@H]3CC[C@@H]4C[C@H](OC(=O)[C@H](CC(=O)O)NC(=O)c5ccc([N+](=O)[O-])cc5)CC[C@]4(C)[C@H]3CC[C@]12C | 0 | > 70 | > 90 | 7.2 | – | – | – | – | – | – | – | –
C[C@H](CCC(=O)NCC(=O)O)[C@H]1CC[C@H]2[C@@H]3CC[C@@H]4C[C@H](O)CC[C@]4(C)[C@H]3CC[C@]12C | 15 | – | – | – | – | – | – | – | 41 | 9 | – | –
C[C@@H]1O[C@@H](O[C@H]2[C@H](O[C@H]3[C@H](O[C@H]4CC[C@@]5(C)[C@@H](CC[C@]6(C)[C@@H]5CC=C5[C@@H]7CC(C)(C)C[C@@H](O)[C@]7(C)CC[C@]56C)[C@@]4(C)CO)O[C@H](C(=O)O)[C@@H](O)[C@@H]3O)O[C@H](CO)[C@H](O)[C@@H]2O)[C@H](O)[C@H](O)[C@H]1O | 59 | – | – | – | – | – | – | – | 83 | 68 | – | –
COc1ccc2c(CC(=O)N[C@@H](CC(=O)O)C(=O)O[C@@H]3CC[C@@]4(C)[C@H](CC[C@@H]5[C@@H]4CC[C@]4(C)[C@@H]([C@H](C)CCC(=O)OCCOCCOCCOCCN=[N+]=[N-])CC[C@@H]54)C3)cc(=O)oc2c1 | 0 | > 101 | > 90 | 5 | – | – | – | – | – | – | – | –
C[C@H](CCC(=O)OCCOCCOCCN=[N+]=[N-])[C@H]1CC[C@H]2[C@@H]3CC[C@@H]4C[C@H](OC(=O)[C@H](CC(=O)O)NC(=O)c5ccc([N+](=O)[O-])cc5)CC[C@]4(C)[C@H]3CC[C@]12C | 0 | > 94 | > 90 | 5.4 | – | – | – | – | – | – | – | –
C[C@H](CCC(=O)OCCN=[N+]=[N-])[C@H]1CC[C@H]2[C@@H]3CC[C@@H]4C[C@H](OC(=O)[C@H](CC(=O)O)Nc5ccc([N+](=O)[O-])c6nonc56)CC[C@]4(C)[C@H]3CC[C@]12C | 0 | > 119 | > 90 | 4.2 | – | – | – | 0.8 | – | – | > 625 | –
C[C@H](CCC(=O)OCCOCCOCCOCCOCCN=[N+]=[N-])[C@H]1CC[C@H]2[C@@H]3CC[C@@H]4C[C@H](OC(=O)[C@H](CC(=O)O)NC(=O)c5ccc([N+](=O)[O-])cc5)CC[C@]4(C)[C@H]3CC[C@]12C | 0 | > 67 | > 90 | 7.5 | – | – | – | – | – | – | – | –
C[C@H](CCC(=O)OCCOCCN=[N+]=[N-])[C@H]1CC[C@H]2[C@@H]3CC[C@@H]4C[C@H](OC(=O)[C@H](CC(=O)O)Nc5ccc([N+](=O)[O-])c6nonc56)CC[C@]4(C)[C@H]3CC[C@]12C | 0 | > 116 | > 90 | 4.33 | – | – | – | 0.77 | 74 | – | > 649 | < 1300
C[C@H](CCC(=O)OCCOCCOCCOCCOCCN=[N+]=[N-])[C@H]1CC[C@H]2[C@@H]3CC[C@@H]4C[C@H](OC(=O)[C@H](CC(=O)O)Nc5ccc([N+](=O)[O-])c6nonc56)CC[C@]4(C)[C@H]3CC[C@]12C | 0 | > 99 | > 90 | 5 | – | – | – | 1 | – | – | > 516 | –
C[C@H](CCC(=O)OCCOCCN=[N+]=[N-])[C@H]1CC[C@H]2[C@@H]3CC[C@@H]4C[C@H](OC(=O)[C@H](CC(=O)O)NC(=O)c5ccc([N+](=O)[O-])cc5)CC[C@]4(C)[C@H]3CC[C@]12C | 0 | > 74 | > 90 | 6.7 | – | – | – | – | – | – | – | –
C[C@H](CCC(=O)OCCOCCOCCOCCN=[N+]=[N-])[C@H]1CC[C@H]2[C@@H]3CC[C@@H]4C[C@H](OC(=O)[C@H](CC(=O)O)NC(=O)c5ccc([N+](=O)[O-])cc5)CC[C@]4(C)[C@H]3CC[C@]12C | 0 | > 88 | > 90 | 5.7 | – | – | – | – | – | – | – | –
